Results on one compound are retold here after US20060140858A1, “Drug pre-targeting by means of bi-specific antibodies and hapten constructs comprising a carrier peptide and the active agent(s)” (Immunomedics, Inc., priority 2002, published 2006).

Data set [1] concerns GW-39. Nature of the data set: Comparison of ^177Lu-IMP-241 and ^111In-IMP-241 pretargeting using hMN-14 × m679 F(ab′)2 bsMAb (24 h bsMAb clearance). Format: in vivo, nude mice. To be noted: listed as 111In-IMP-241. The procedure: (§1) Female NCr nude mice Charles River Laboratories, Inc., Fredrick Md. or Taconic, Germantown, N.Y.) approximately 6 weeks of age were implanted subcutaneously with 0.2 ml of this suspension. Two to three weeks after implantation of tumors, animals were injected with the radiolabeled peptide alone, or for pretargeting, with the bsMAb followed 1 to 2 days later with the radiolabeled peptide. […] At the designated times after the peptide injection, animals were anesthetized, bled by cardiac puncture, and then euthanized prior to necropsy. Tissues were removed, weighed and counted by gamma scintillation using appropriate windows for each radionuclide along with standards prepared from the injected materials. When dual isotope counting was used, appropriate backscatter correction was made. GI tissues (stomach, small intestine and large intestine were weighed and counted with their contents. Data are expressed as the percent injected dose per gram tissue (% ID/g) and the ratio of the percentages in the tumor to the normal tissues (T/NT). All values presented in the tables and figures represent the mean and standard deviation of the calculated values with the number of animals used for each study provided therein.

Data set [2] has as its system GW-39. Also noted: species or system nude mice. To be noted: mouse, in vivo. The protocol: as §1
The format of data set [3] is in vitro ADME, mouse. The text has this: The peptide was monitored as described above by HPLC.

*1 amine or outer side, *2 acyl side, *3 side chain or, on linkers, in order; H or OH if unused. Where a SMILES comes first, the peptide text is derived from it. Side-chain parts run from the residue outwards. [ ]: non-standard residue; d: D form. The star is where a group is joined. DOTA = O=C(O)CN1CCN(CC(=O)O)CCN(CC(=O)*)CCN(CC(=O)O)CC1; NH(2-(imidazol-4-yl)ethyl) = c1ncc(CCN*)[nH]1; Suc = O=C(CCC(=O)[*:2])[*:1]

For `NC(=O)[C@H](CCCCNC(=O)CNC(=O)CCC(=O)NCCc1cnc[nH]1)NC(=O)[C@@H](Cc1ccc(O)cc1)NC(=O)[C@H](CCCCNC(=O)CNC(=O)CCC(=O)NCCc1cnc[nH]1)NC(=O)[C@H](Cc1ccccc1)NC(=O)CN1CCN(CC(=O)O)CCN(CC(=O)O)CCN(CC(=O)O)CC1` [IMP 241, DOTA-Phe-Lys(HSG)-D-Tys-Lys(HSG)-NH2] ({DOTA}-FK([Gly-Suc-NH(2-(imidazol-4-yl)ethyl)])[dY]K([Gly-Suc-NH(2-(imidazol-4-yl)ethyl)])-NH2), the “Percent Injected Dose Per Gram” value with GW-39 [1] (Blood, 3 hour after peptide) is listed as 1.87 ± 0.97 % ID/g; in the data set with GW-39 [1] (Kidney, 3 hour after peptide) it was 3.00 ± 0.87 % ID/g; in the data set with GW-39 [1] (Liver, 3 hour after peptide), 0.57 ± 0.24 % ID/g; in the data set with GW-39 [1] (Lungs, 3 hour after peptide), 0.81 ± 0.33 % ID/g; with GW-39 [1] (Lungs, 24 hour after peptide) it was 0.24 ± 0.07 % ID/g; in the data set on GW-39 [1] (Tumor, 3 hour after peptide) it was 8.76 ± 2.31 % ID/g. Also, the “Percent Injected Dose Per Gram” value in the data set on GW-39 [1] (Tumor, 24 hour after peptide) was determined as 2.54 ± 1.04 % ID/g. Further, in the data set with GW-39 [2], the “increase of tumor accretion by pretargeting compared to the peptide alone” value is about 100 fold. Also, the “decomposed in mouse serum” value in data set [3] is on record as about 5%.
